Counter-ions that a name gives are not always drawn.

In general, IC90 refers to the concentration at which the effect reaches the 90% level.

The test system of the first assay is Acinetobacter baumannii ATCC17961. Kind of assay: 90% growth inhibitory concentration (IC90) determination, antimicrobial susceptibility testing. The format is cell-based. Conditions: Acinetobacter baumannii, ATCC17961, 16 h, 90% growth inhibition, Iso-Sensitest broth, OD 600 nm over 16 h, 35±2° C.; read-out: ATCC 17961 IC90. The procedure: Antimicrobial Susceptibility Testing:
90% Growth Inhibitory Concentration (IC90) Determination
The in vitro antimicrobial activity of the compounds was determined according to the following procedure:
The assay used a 10-points Iso-Sensitest broth medium to measure quantitatively the in vitro activity of the compounds against Acinetobacter baumannii ATCC17961 and ATCC17978.
Stock compounds in DMSO were serially twofold diluted (e.g. range from 50 to 0.097 μM final concentration) in 384 wells microtiter plates and inoculated with 49 μl the bacterial suspension in Iso-Sensitest medium to have a final cell concentration of ˜5×10^(5) CFU/ml in a final volume/well of 50 ul/well. Microtiter plates were incubated at 35±2° C.
Bacterial cell growth was determined with the measurement of optical density at λ=600 nm each minutes over a time course of 16 h. Growth inhibition was calculated during the logarithmic growth of the bacterial cells with determination of the concentration inhibiting 50% (IC50) and 90% (IC90) of the growth.
Table 2 provides the 90% growth inhibitory concentrations (IC90) in micromoles per liter of the compounds of present invention obtained against the strain Acinetobacter baumannii ATCC17961.
In the case of `COc1ccc(-c2cnc3c(Nc4ccc(C(=O)NC5CCN(C(=O)C[N+](C)(C)C)CC5)c(C)c4)nccn23)c(F)c1F` [Example 60, 2-(4-(4-((3-(2,3-Difluoro-4-methoxyphenyl)imidazo[1,2-a]pyrazin-8-yl)amino)-2-methylbenzamido)piperidin-1-yl)-N,N,N-trimethyl-2-oxoethan-1-aminium Chloride], the IC90 was 0.166 µM.

Regarding `C[N+](C)(C)CC(=O)N1CCN(C(=O)c2ccc(Nc3nccn4c(-c5c[nH]nc5C(F)(F)F)cnc34)cc2Cl)CC1` [Example 62, [2-[4-[2-Chloro-4-[[3-[3-(trifluoromethyl)-1H-pyrazol-4-yl]imidazo[1,2-a]pyrazin-8-yl]amino]benzoyl]piperazin-1-yl]-2-oxo-ethyl]-trimethyl-ammonium Formate], the IC90 worked out at 0.449 µM. Take `COc1ccc(-c2cnc3c(Nc4ccc(C(=O)N[C@H]5CC[C@@H](NC(=O)C[N+](C)(C)C)CC5)c(C)c4)nccn23)c(F)c1F` [Example 63, 2-(((1s,4s)-4-(4-((3-(2,3-Difluoro-4-methoxyphenyl)imidazo[1,2-a]pyrazin-8-yl)amino)-2-methylbenzamido)cyclohexyl)amino)-N,N,N-trimethyl-2-oxoethan-1-aminium Chloride]: the IC90 was determined as 0.0811 µM. Consider `Cc1cc(Nc2nccn3c(-c4cn(CC#N)nc4C(F)(F)F)cnc23)ccc1C(=O)N1CCN(C(=O)C[N+](C)(C)C)CC1` [Example 64, [2-[4-[4-[[3-[1-(Cyanomethyl)-3-(trifluoromethyl)pyrazol-4-yl]imidazo[1,2-a]pyrazin-8-yl]amino]-2-methyl-benzoyl]piperazin-1-yl]-2-oxo-ethyl]-trimethyl-ammonium Formate], for which the IC90 was 0.78 µM.

For the compound `C[N+](C)(C)CC(=O)N1CCN(C(=O)c2ccc(Nc3nccn4c(-c5cn(CC#N)nc5C(F)(F)F)cnc34)cc2Cl)CC1` [Example 65, [2-[4-[2-Chloro-4-[[3-[1-(cyanomethyl)-3-(trifluoromethyl)pyrazol-4-yl]imidazo[1,2-a]pyrazin-8-yl]amino]benzoyl]piperazin-1-yl]-2-oxo-ethyl]-trimethyl-ammonium Formate], the IC90 is 0.546 µM. Still for that read-out and setting: for `COc1ccc(-c2cnc3c(Nc4ccc(C(=O)N[C@H]5C[C@@H](NCC[N+](C)(C)C)C5)c(Cl)c4)nccn23)c(F)c1F` [Example 66, 2-[[3-[[2-Chloro-4-[[3-(2,3-difluoro-4-methoxy-phenyl)imidazo[1,2-a]pyrazin-8-yl]amino]benzoyl]amino]cyclobutyl]amino]ethyl-trimethyl-ammonium Formate] the value was 0.0572 µM; for `COc1ccc(-c2cnc3c(Nc4ccc(C(=O)N[C@H]5CCN(C(=O)C[N+](C)(C)C)C5)c(C)c4)nccn23)c(F)c1F` [Example 67, (S)-2-(3-(4-((3-(2,3-Difluoro-4-methoxyphenyl)imidazo[1,2-a]pyrazin-8-yl)amino)-2-methylbenzamido)pyrrolidin-1-yl)-N,N,N-trimethyl-2-oxoethan-1-aminium Chloride], 0.0448 µM.

With `COc1ccc(-c2cnc3c(Nc4ccc(C(=O)NC5CCCN(C(=O)C[N+](C)(C)C)C5)c(C)c4)nccn23)c(F)c1F` (stereo not drawn) [Example 68, 2-(3-(4-((3-(2,3-Difluoro-4-methoxyphenyl)imidazo[1,2-a]pyrazin-8-yl)amino)-2-methylbenzamido)piperidin-1-yl)-N,N,N-trimethyl-2-oxoethan-1-aminium Chloride], the concentration for an effect of 90% (IC90) worked out at 0.168 µM. On to `COc1ccc(-c2cnc3c(Nc4ccc(C(=O)N[C@H]5CC[C@H](NC(=O)C[N+](C)(C)C)CC5)c(C)c4)nccn23)c(F)c1F` [Example 69, 2-(((1r,4r)-4-(4-((3-(2,3-Difluoro-4-methoxyphenyl)imidazo[1,2-a]pyrazin-8-yl)amino)-2-methylbenzamido)cyclohexyl)amino)-N,N,N-trimethyl-2-oxoethan-1-aminium Chloride], for which the IC90 was determined as 0.263 µM. On to `COc1ccc(-c2cnc3c(Nc4ccc(C(=O)N[C@@H]5CCN(C(=O)C[N+](C)(C)C)C5)c(C)c4)nccn23)c(F)c1F` [Example 70, (R)-2-(3-(4-((3-(2,3-difluoro-4-methoxyphenyl)imidazo[1,2-a]pyrazin-8-yl)amino)-2-methylbenzamido)pyrrolidin-1-yl)-N,N,N-trimethyl-2-oxoethan-1-aminium Chloride], for which the IC90 turned out to be 0.0445 µM. As for `CCc1cc(Nc2nccn3c(-c4ccc(OC)c(F)c4F)cnc23)ccc1C(=O)NC1CN(C(=O)C[N+](C)(C)CC(N)=O)C1` [Example 71, 2-Amino-N-(2-(3-(4-((3-(2,3-difluoro-4-methoxyphenyl)imidazo[1,2-a]pyrazin-8-yl)amino)-2-ethylbenzamido)azetidin-1-yl)-2-oxoethyl)-N,N-dimethyl-2-oxoethan-1-aminium Formate], the IC90 was 0.0677 µM. With `COc1ccc(-c2cnc3c(Nc4ccc(C(=O)N[C@H]5C[C@@H](NC(=O)C[N+](C)(C)C)C5)c(C)c4)nccn23)c(F)c1F` [Example 72, 2-(((1s,3s)-3-(4-((3-(2,3-Difluoro-4-methoxyphenyl)imidazo[1,2-a]pyrazin-8-yl)amino)-2-methylbenzamido)cyclobutyl)amino)-N,N,N-trimethyl-2-oxoethan-1-aminium Chloride], the IC90 came to 0.0403 µM. Same read-out and setting: for `COc1ccc(-c2cnc3c(Nc4ccc(C(=O)NCCC[N+](C)(C)CCO)c(Cl)c4)nccn23)c(F)c1F` [Example 73, 3-(2-chloro-4-((3-(2,3-difluoro-4-methoxyphenyl)imidazo[1,2-a]pyrazin-8-yl)amino)benzamido)-N-(2-hydroxyethyl)-N,N-dimethylpropan-1-aminium Formate] the value was 0.121 µM; for `CCc1cc(Nc2nccn3c(-c4ccc(OC)c(F)c4F)cnc23)ccc1C(=O)NCCOCC[N+](C)(C)CC#N` [Example 74, N-(Cyanomethyl)-2-(2-(4-((3-(2,3-difluoro-4-methoxyphenyl)imidazo[1,2-a]pyrazin-8-yl)amino)-2-ethylbenzamido)ethoxy)-N,N-dimethylethan-1-aminium Formate], 0.031 µM; for `CCOC(=O)C[N+](C)(C)CCOCCNC(=O)c1ccc(Nc2nccn3c(-c4ccc(OC)c(F)c4F)cnc23)cc1CC` [Example 75, N-(2-(2-(4-((3-(2,3-Difluoro-4-methoxyphenyl)imidazo[1,2-a]pyrazin-8-yl)amino)-2-ethylbenzamido)ethoxy)ethyl)-2-ethoxy-N,N-dimethyl-2-oxoethan-1-aminium Formate], 0.0658 µM. For the compound `CCc1cc(Nc2nccn3c(-c4ccc(OC)c(F)c4F)cnc23)ccc1C(=O)NCCCCC[N+](C)(C)CC(N)=O` [Example 76, Mono(N-(2-amino-2-oxoethyl)-5-(4-((3-(2,3-difluoro-4-methoxyphenyl)imidazo[1,2-a]pyrazin-8-yl)amino)-2-ethylbenzamido)-N,N-dimethylpentan-1-aminium) monoformate Monoiodide], the IC90 turned out to be 0.0274 µM. For `CCc1cc(Nc2nccn3c(-c4ccc(OC)c(F)c4F)cnc23)ccc1C(=O)N[C@H]1CC[C@H](NC(=O)C[N+](C)(C)C)CC1` [Example 77, Trans-[2-[[4-[[4-[[3-(2,3-Difluoro-4-methoxyphenyl)imidazo[1,2-a]pyrazin-8-yl]amino]-2-ethylbenzoyl]amino]cyclohexyl]amino]-2-oxoethyl]-trimethylazanium formate], the IC90 is 0.342 µM. Take `CCc1cc(Nc2nccn3c(-c4cn(CC#N)nc4C(F)(F)F)cnc23)ccc1C(=O)NCCOCC[N+]1(CC#N)CCOCC1` [Example 78, 4-(Cyanomethyl)-4-(2-(2-(4-((3-(1-(cyanomethyl)-3-(trifluoromethyl)-1H-pyrazol-4-yl)imidazo[1,2-a]pyrazin-8-yl)amino)-2-ethylbenzamido)ethoxy)ethyl)morpholin-4-ium Formate]: the IC90 was 0.467 µM. For the compound `CCc1cc(Nc2nccn3c(-c4ccc(OC(F)F)c(F)c4F)cnc23)ccc1C(=O)NCCCCC[N+](C)(C)CC(=O)N1CCNCC1` [Example 79, 5-[[4-[[3-[4-(Difluoromethoxy)-2,3-difluoro-phenyl]imidazo[1,2-a]pyrazin-8-yl]amino]-2-ethyl-benzoyl]amino]pentyl-dimethyl-(2-oxo-2-piperazin-1-yl-ethyl)ammonium bis(2,2,2-trifluoroacetate)], the IC90 was determined as 0.0822 µM.

Take `CCc1cc(Nc2nccn3c(-c4ccc(OC(F)F)c(F)c4F)cnc23)ccc1C(=O)NCC1C2C[N+](C)(CC3CNC3)CC12` (stereo not drawn) [Example 80, N-[[3-(azetidin-3-ylmethyl)-3-methyl-3-azoniabicyclo[3.1.1]hexan-6-yl]methyl]-4-[[3-[4-(difluoromethoxy)-2,3-difluoro-phenyl]imidazo[1,2-a]pyrazin-8-yl]amino]-2-ethyl-benzamide bis(2,2,2-trifluoroacetate)]: the IC90 was found to be 0.0959 µM.

Staying with this assay, now noted: Acinetobacter baumannii, ATCC17961, 16 h, read-out: ATCC 17961 IC90.
`C[N+](C)(C)CC(=O)N[C@H]1C[C@@H](NC(=O)c2ccc(Nc3nccn4c(-c5c[nH]nc5C(F)(F)F)cnc34)cc2Cl)C1` [Example 61, [2-[[3-[[2-Chloro-4-[[3-[3-(trifluoromethyl)-1H-pyrazol-4-yl]imidazo[1,2-a]pyrazin-8-yl]amino]benzoyl]amino]cyclobutyl]amino]-2-oxo-ethyl]-trimethyl-ammonium Formate]: the IC90 came to 0.478 µM.

For the origin of these results see patent US20230141600A1, “IMIDAZOPYRAZINE DERIVATIVES” (priority 2020, published 2023).
